Measured values published in US9604974B2, “Compounds as modulator of JAK-STAT pathway, methods and applications thereof” (UNIVERSITY OF MYSORE, priority 2015, dated 2017).

Columns and labels:
STAT3 = assay: Immunocytochemistry of STAT3 nuclear translocation; format: cell-based, human; conditions: HepG2, 10 μMol/L, about 6 hours
Description: HepG2 cells are plated in chamber slides in DMEM containing 10% FBS and allowed to adhere for about 24 hours. Following treatment with CIMO for about 6 hours, the cells are fixed with cold acetone for about 10 minutes, washed with PBS and blocked with 5% normal goat serum for about 1 hour. The cells are then incubated with rabbit polyclonal anti-human STAT3 Antibody (dilution, 1/100). After overnight incubation, the cells are washed and then incubated with goat anti-rabbit IgG-Alexa 594 ( 1/100) for about 1 hour and counterstained for nuclei with Hoechst (50 ng/ml) for about 5 minutes. Stained cells are mounted with mounting medium (Sigma-Aldrich) and analyzed under a fluorescence microscope (DP 70, Olympus, Tokyo, Japan).

[1] = system: phospho-STAT3, Ki-67, cleaved caspase-3; assay: Immunohistochemistry of tumor tissues; format: in vivo, athymic nu/nu female mice; conditions: treated vs. control group
Description: The effect of CIMO on constitutive phospho-STAT3 levels in HCC tumor tissues is further analyzed by immunohistochemical analysis. Solid tumors from control and drug-treated groups are fixed with 10% phosphate buffered formalin, processed, and embedded in paraffin. The sections are cut to 5 micron size and deparafinized in xylene, dehydrated in graded alcohol, and finally hydrated in water. Antigen retrieval is conducted by boiling the slide in 10 mM sodium citrate (pH 6.0) for about 30 minutes. Immunohistochemistry is conducted following the manufacturer's instructions (Dako LSAB Kit). Briefly, endogenous peroxidases are quenched with 3% hydrogen peroxide. Sections are incubated with primary antibodies for about 2 hours as follows: anti-pSTAT3, anti-Ki-67 and anti-caspase-3 (each at 1:100 dilutions). The slides are subsequently washed several times in TBS with 0.1% Tween-20 and are incubated with biotinylated linker for about 45 minutes, provided in the LSAB Kit according to the manufacturer's instructions. Immunoreactive species are detected using 3, 3′-diaminobenzidine tetrahydrochloride as a substrate. The sections are counterstained with Gill's hematoxylin and mounted under glass cover slips. Images are taken using an Olympus BX51 microscope (magnification, 40×). Quantitative analysis of immunohistochemistry images are done by visual scores between the control and treated images. In this expression quantitation technique, each image is divided into four parts and each part is individually quantitated for the biomarker expression. A cell scored as positive refers to the presence of brown staining (peroxidase) in any part of the studied tissue. A negative cell scored refers to no staining or weak staining.

SHP-1, SHPTP-2, PTP1B = assay: Western blot of tyrosine phosphatase expression; format: cell-based, human; conditions: HepG2, CIMO up to 4 hours
PLC/PRF5 = assay: MTT anti-proliferative assay, PLC/PRF5; format: cell-based; conditions: Homo sapiens, PLC-PRF-5
Description: (§1) The anti-proliferative activity of Formula I compounds are studied on HepG2 cells using MTT assay. Briefly, the cells (2.5×10^4/ml) are incubated in triplicate in a 96-well plate in the presence or absence of different concentrations of compounds in a final volume of 0.2 ml up to 72 hours at 37° C. Thereafter, 20 μl MTT solution (5 mg/ml in PBS) is added to each well. After 2 hours of incubation at 37° C., 0.1 ml lysis buffer (20% SDS, 50% dimethyl-formamide) is added; incubation is continued overnight at 37° C.; and the optical density (OD) at 570 nm is measured by Tecan plate reader.
(§2) Additionally, Compound 1 is tested on a panel of six cell lines including Hep3B, PLC/PRF5, AGS (gastric cancer cell line), DU145 (prostrate cancer cell line), MDA MB231 (breast cancer cell line) and CAL27 (head and neck cancer cell line) cells.

[2] = system: STAT3 mediated transcription (α2-M promoter); assay: α2-macroglobulin promoter luciferase reporter assay; format: cell-based, human; conditions: HepG2, versus DMSO control
Description: Increased STAT3 activity is known to stimulate oncogenicity of hepatocellular carcinoma. Therefore, evaluation of the level of phosphorylated STAT3 (Y705) in HepG2 cells is carried out with siRNA-mediated deletion of STAT3 transcripts and/or exposure to CIMO, using Western Blot analysis. Experiments related to transient-transfection of STAT3 siRNA in HepG2 cells and STAT3 mediated Transcription activity are performed wherein 60-70% confluent of cells in a 6-well plate are transfected using FuGENE6 (Roche Molecular Biochemicals, Indianapolis, USA) transfection reagent. Luciferase assay is performed using Dual Luciferase Assay Kit (Promega Corp, Singapore). Transfections are carried out in triplicate using 1 μg of the appropriate α-2 macroglobulin luciferase reporter plasmid and empty vector per transfection along with 0.2 μg of Renilla expression plasmid as control for transfection efficiency. Luciferase activities are assayed 48 hours after transfection using the dual Luciferase Assay System (Promega Corp, Singapore)
In addition, assessment of STAT3 mediated transcriptional activity using an α2-macroglobulin (α2-M) promoter in HepG2 cells with either siRNA-mediated depletion of STAT3 expression or on exposure to CIMO is carried out as described above (FIG. 3B).

HepG2 cells [3] = assay: CXCL12-induced wound migration assay; format: cell-based, human; conditions: 5 μM CIMO, presence and absence of CXCL12, versus controls
Description: STAT3 targeted gene products are known to be involved in cancer cell migration. FIG. 5A interprets the movement of cancer cells in the presence and absence of CIMO and C—X—C motif chemokine 12 (CXCL12) protein. CXCL12 is a chemokine which essentially stimulates the swift migration of cancer cells. An IBIDI culture insert (IBIDI GmbH) is developed with two reservoirs separated by a 500 μm thick wall created by a culture insert in a 35 mm petri dish. 70 μl of HepG2 cells (5×10^5 cells/ml) are added into the two reservoirs of the same insert and incubated at about 37° C. After 12 hours, the insert is gently removed by creating a gap of ˜500 μm. The cells are treated with about 5 μM CIMO for about 8 hours before being exposed to about 100 ng/mL CXCL12 for about 24 hours. Width of wound is measured at time zero and 24 hours of incubation with and without CIMO in the absence or presence of CXCL12. Graphs are plotted against the percentage of migration or distance the cells moved before and after treatment, normalized to control.

Hep3B = assay: MTT anti-proliferative assay, Hep3B; format: cell-based; conditions: Homo sapiens
Description: as §1, §2

HepG2 cells [4] = assay: MTT anti-proliferative assay, HepG2; format: cell-based; conditions: Homo sapiens
Description: as §1

Question: How did the “STAT3 in the nucleus” value (STAT3) turn out when `COc1ccc(C2CNC(c3cn(Cc4ccc(-c5ccccc5C#N)cc4)c4ccccc34)OC23CCCCC3)cc1` (centres unmarked) [Compound 1] was run?
Answer: significant decrease

Question: And the “constitutive STAT3 activation in tumor tissues” value [1]?
Answer: significantly inhibits

Question: What about the “expression of Ki-67 in tumor tissues” value [1] of the same molecule?
Answer: downregulated

Question: And the “expression of cleaved caspase-3 in tumor tissues” value [1]?
Answer: significantly increased

Question: What about the “levels of SHP-1, SHPTP-2, PTP1B” value (SHP-1, SHPTP-2, PTP1B) of the same molecule?
Answer: no change

Question: What about the IC50 (PLC/PRF5) of the same molecule?
Answer: 38.8 µM

Question: What about the α2-M promoter activity [2] of the same molecule?
Answer: decreased α2-M promoter activity

Question: And the “limitation of HepG2 cell migration” value (HepG2 cells [3])?
Answer: ~50%

Question: And the IC50 (Hep3B)?
Answer: 46.9 µM

Question: And the IC50 (HepG2 cells [4]; HepG2, Table 2)?
Answer: 7.3 µM

Question: What about the IC50 (HepG2 cells [4]; HepG2 cells after 72 hours, MTT) of the same molecule?
Answer: 7.3 µM
